Laboratory results as given in patent publication US6214992A (Hoechst Aktiengesellschaft, priority 1996, dated 2001).
Like-named read-outs stand apart in the source and are kept apart here.

Columns and labels:
C57BL/6 mice = experiment: endotoxin (LPS)-induced lethal shock, decrease in mortality; format: in vivo; settings: Mus musculus, ip, read-out: Inhibition of mortality
Method: For the testing of preparations for antishock action, various experimental animal models have been developed.
To carry out the experiments, a mixture of 10 ng of LPS from Salmonella abortus equi. and 7.5 mg of galactosamine in 0.2 ml of phosphate-buffered,physiological saline solution was administered to each animal by intravenous injection, which as a rule led to death within 6 to 9 hours. The test preparations were administered intraperitoneally one hour before LPS provocation at a dose of 100 mg/kg. The animals of the control group (n=10) instead of this received pure 0.9% saline solution as placebo. To assess the action of the preparation, the number of surviving animals was determined in the treated group (n=10) 48 hours after LPS administration and from this the percentage inhibition of mortality was determined with respect to the mortality in the control group.

Mongolian gerbils [1] = experiment: transient global ischemia, CA1 hippocampus nerve cell damage; format: in vivo, Mongolian gerbil; settings: Meriones unguiculatus, ip, 168 h, histopathological score after 7 days versus untreated control, read-out: Inhibition of the neuronal CA1 hippocampus damage; for inhibition in vivo at 10 mg/kg: Dose 10 mg/kg intraperitoneally 30 minutes after 3-minute ischemia
Method: To carry out the experiment, which took place according to the guidelines of the German Animal Protection Act, 30 male Mongolian gerbils having a body weight of between 60 and 70 g were randomly divided into two groups each containing 15 animals. The respective test substance was administered to the animals of the first group 30 minutes after the ischemia period by intraperitoneal injection, while the animals of the second group, which served as an untreated control group, only received the same volume of the vehicle concerned. To produce the temporary forebrain ischemia, the animals were fixed in the supine position to a heated operated table, and both common carotid arteries were carefully exposed and closed for 3 minutes by means of microaneurysm clips. 7 days after the 3-minute ischemia period, the animals were decapitated under halothane anesthesia, the brains were rapidly and carefully removed, first fixed by immersion in Carnoy's solution (ethanol/chloroform/acetic acid=6/3/1) and then embedded in paraffin. Subsequently 4 to 6 μm thick coronal sections through the hippocampus were prepared approximately at the height of the bregma and these were stained with hematoxylin and eosin. After this, the extent of eosinophilic necrosis of the pyramidal cells in the CA1 region of the hippocampus was determined by light microscopy in the course of a blind experiment by means of a semiquantitative histopathological score (0=none; 1=slight; 2=medium severe; 3=severe and 4=complete necroses). The assessment variable used for the neuroprotective action was the percentage change in the mean histopathological score of the preparation group compared to that of the untreated control group.

Mongolian gerbils [2] = settings: gerbil, comparable experimental conditions; J. Cereb. Blood Flow Metab. 1987, 7/1: 74-81; cited from earlier work
rat = settings: comparable experimental conditions, J. Cereb. Blood Flow Metab. 1994, 14/1: 166-173; cited from earlier work
[3] = 100 mg/kg intraperitoneally one hour before LPS/galactosamine, survivors 48 hours after LPS, versus placebo control

SMILES	inhibition in vivo at 100 mg/kg (C57BL/6 mice; [3]) [%]	inhibition in vivo at 10 mg/kg (Mongolian gerbils [1]) [%]	also measured
COCn1c(=O)c2[nH]cnc2n(C)c1=O [Compound 1, 1-Methoxymethyl-3-methylxanthine]	80	–	–
CCn1c(=O)n(COC)c(=O)c2[nH]cnc21 [Compound 2]	30	–	–
CCCCn1c(=O)n(COC)c(=O)c2[nH]cnc21 [Compound 4]	30	–	–
COCn1c(=O)c2[nH]cnc2n(C2CC2)c1=O [Compound 5]	–	20	–
COCCn1c(=O)c2[nH]cnc2n(C)c1=O [Compound 6]	–	20	–
CCn1c(=O)n(CCOC)c(=O)c2[nH]cnc21 [Compound 7]	–	33	–
CCCn1c(=O)n(CCOC)c(=O)c2[nH]cnc21 [Compound 8]	–	–	inhibition in vivo at 100 mg/kg (C57BL/6 mice; 48 h): 30%
CCOCn1c(=O)c2[nH]cnc2n(C)c1=O [Compound 16]	100	–	–
CCOCn1c(=O)c2[nH]cnc2n(CC)c1=O [Compound 17]	100	66	–
CCOCCn1c(=O)c2[nH]cnc2n(C)c1=O [Compound 21]	40	–	–
CCCn1c(=O)n(CCOCC)c(=O)c2[nH]cnc21 [Compound 23]	–	–	inhibition in vivo at 100 mg/kg (C57BL/6 mice; 48 h): 40%
CCCCn1c(=O)n(CCOCC)c(=O)c2[nH]cnc21 [Compound 24]	–	30	–
CCOCCn1c(=O)c2[nH]cnc2n(C2CC2)c1=O [Compound 25]	–	24	–
CCCOCn1c(=O)c2[nH]cnc2n(C)c1=O [Compound 26]	100	–	–
CCCOCn1c(=O)c2[nH]cnc2n(CC)c1=O [Compound 27, 3-Ethyl-1-propoxymethylxanthine]	100	67	inhibition in vivo at 5 mg/kg (Mongolian gerbils [1]; Dose 5 mg/kg intraperitoneally 30 minutes after 3-minute ischemia): 40%
CCCOCn1c(=O)c2[nH]cnc2n(CCC)c1=O [Compound 28]	–	30	–
CCCOCn1c(=O)c2[nH]cnc2n(C(C)C)c1=O [Compound 29]	50	–	–
CCCCn1c(=O)n(COCCC)c(=O)c2[nH]cnc21 [Compound 30]	–	24	–
CCCOCn1c(=O)c2[nH]cnc2n(CC(C)C)c1=O [Compound 31, 3-Isobutyl-1-propoxymethylxanthine]	30	–	–
CCCOCn1c(=O)c2[nH]cnc2n(-c2ccccc2)c1=O [Compound 32, 3-Phenyl-1-propoxymethylxanthine]	90	–	–
CCCOCn1c(=O)c2[nH]cnc2n(CC2CC2)c1=O [Compound 34, 3-Cyclopropylmethyl-1-propoxymethylxanthine]	30	–	–

SMILES	inhibition in vivo at 100 mg/kg (C57BL/6 mice; [3]) [%]	inhibition in vivo at 10 mg/kg (Mongolian gerbils [1]) [%]	also measured
CCCOCCn1c(=O)c2[nH]cnc2n(C)c1=O [Compound 35]	30	–	–
CCCOCCn1c(=O)c2[nH]cnc2n(CC)c1=O [Compound 36]	–	23	–
CCCOCCn1c(=O)c2[nH]cnc2n(CCC)c1=O [Compound 37, 1-(2-Propoxyethyl)-3-propylxanthine]	80	–	–
CCCOCCn1c(=O)c2[nH]cnc2n(C2CC2)c1=O [Compound 39]	30	36	–
CCCCOCn1c(=O)c2[nH]cnc2n(C)c1=O [Compound 40]	40	–	–
CCCCOCn1c(=O)c2[nH]cnc2n(CC)c1=O [Compound 41]	40	–	–
CCCCOCCn1c(=O)c2[nH]cnc2n(CC)c1=O [Compound 44]	30	64	–
CC(C)COCn1c(=O)c2[nH]cnc2n(C)c1=O [Compound 48, 1-Isobutoxymethyl-3-methylxanthine]	40	–	–
CC(C)COCn1c(=O)c2[nH]cnc2n(C2CC2)c1=O [Compound 50]	40	–	–
CCC(C)OCn1c(=O)c2[nH]cnc2n(CC)c1=O (stereo not drawn) [Compound 52, 1-sec-Butoxymethyl-3-ethylxanthine]	30	–	–
CCn1c(=O)n(COCCOC)c(=O)c2[nH]cnc21 [Compound 54]	30	36	–
CCn1c(=O)n(COc2ccccc2)c(=O)c2[nH]cnc21 [Compound 58]	–	20	–
CCn1c(=O)n(CCOc2ccccc2)c(=O)c2[nH]cnc21 [Compound 61]	–	23	–
CCCCn1c(=O)n(CCOc2ccccc2)c(=O)c2[nH]cnc21 [Compound 63]	–	27	–
CCn1c(=O)n(COc2ccc(Cl)cc2)c(=O)c2[nH]cnc21 [Compound 66]	–	23	–
CCn1c(=O)n(CCOC)c(=O)c2c1ncn2Cc1ccccc1 [Compound 77]	–	33	–
CCn1c(=O)n(CCCOC)c(=O)c2c1ncn2Cc1ccccc1 [Compound 82]	–	30	–
CCCOCn1c(=O)c2c(ncn2Cc2ccccc2)n(C2CC2)c1=O [Compound 103]	–	32	–
CCCCOCCn1c(=O)c2c(ncn2Cc2ccccc2)n(CC)c1=O [Compound 114]	–	27	–
Cn1c(=O)c2[nH]cnc2n(C)c1=O [theophylline, 1,3-dimethylxanthine]	–	–	inhibition of ischemic nerve cell damage (Mongolian gerbils [2]): inhibits ischemic nerve cell damage neither; inhibition of ischemic nerve cell damage (rat): inhibits ischemic nerve cell damage neither
